Test results from ChEMBL document CHEMBL4765292, “Flexible diaminodihydrotriazine inhibitors of Plasmodium falciparum dihydrofolate reductase: Binding strengths, modes of binding and their antimalarial activities” (Eur J Med Chem, 2020).

Key:
Plasmodium falciparum [1] = experiment: Antimalarial activity against Plasmodium falciparum TM4/8.2 infected in human erythrocytes assessed as reduction in [3H]-hypoxanthine incorporation pretreated for 20 hrs followed by [3H]-hypoxanthine addition measured after 20 hrs by radioactivity method; format: functional, organism-based
[2] = Inhibition of Plasmodium falciparum DHFR C59R/S108N/I164L mutant expressed in Escherichia coli BL21 using DHF as substrate by spectrophotometric analysis
[3] = Therapeutic index, ratio of IC50 for African green monkey Vero cells to IC50 for Plasmodium falciparum TM4/8.2; format: toxicity; settings: against Plasmodium falciparum TM4/8.2, read-out: Ratio IC50
Plasmodium falciparum [4] = experiment: Antimalarial activity against Plasmodium falciparum T9/94 RC17 harboring DHFR A16V/S108T mutant infected in human erythrocytes assessed as reduction in [3H]-hypoxanthine incorporation pretreated for 20 hrs followed by [3H]-hypoxanthine addition measured after 20 hrs by radioactivity method; format: functional, organism-based; settings: T9/94 RC17, Erythrocyte
[5] = test system: DHFR (human against Plasmodium falciparum DHFR); experiment: Selectivity index, ratio of Ki for human DHFR expressed in Escherichia coli BL21 to Ki for Plasmodium falciparum DHFR expressed in Escherichia coli BL21; format: toxicity; settings: read-out: Ratio Ki
Plasmodium falciparum [6] = experiment: Antimalarial activity against Plasmodium falciparum K1CB1 harboring DHFR […] mutant infected in human erythrocytes assessed as reduction in [3H]-hypoxanthine incorporation pretreated for 20 hrs followed by [3H]-hypoxanthine addition measured after 20 hrs by radioactivity method; format: functional, organism-based; settings: K1CB1, Erythrocyte
[7] = test system: DHFR (human against Plasmodium falciparum DHFR N51I/C59R/S108N/I164L mutant); experiment: Selectivity index, ratio of Ki for human DHFR expressed in Escherichia coli BL21 to Ki for Plasmodium falciparum DHFR N51I/C59R/S108N/I164L mutant expressed in Escherichia coli BL21; format: toxicity; settings: read-out: Ratio Ki
[8] = Therapeutic index, ratio of IC50 for African green monkey Vero cells to IC50 for Plasmodium falciparum V1/S harboring DHFR N51I/C59R/S108N/I164L mutant; format: toxicity; settings: read-out: Ratio IC50
[9] = Inhibition of Plasmodium falciparum DHFR expressed in Escherichia coli BL21 using DHF as substrate by spectrophotometric analysis
Plasmodium falciparum [10] = experiment: Antimalarial activity against Plasmodium falciparum CsI-2 harboring DHFR C59R/S108N/I164L mutant infected in human erythrocytes assessed as reduction in [3H]-hypoxanthine incorporation pretreated for 20 hrs followed by [3H]-hypoxanthine addition measured after 20 hrs by radioactivity method; format: functional, organism-based; settings: CsI-2, Erythrocyte
Vero = experiment: Cytotoxicity against African green monkey Vero cells assessed as reduction in cell viability incubated for 72 hrs by SRB assay; format: cell-based; settings: Chlorocebus sabaeus
[11] = Inhibition of Plasmodium falciparum DHFR N51I/C59R/S108N/I164L mutant expressed in Escherichia coli BL21 using DHF as substrate by spectrophotometric analysis
[12] = Therapeutic index, ratio of IC50 for African green monkey Vero cells to IC50 for Plasmodium falciparum K1CB1 harboring DHFR […] mutant; format: toxicity; settings: read-out: Ratio IC50
[13] = Inhibition of Plasmodium falciparum DHFR […] mutant expressed in Escherichia coli BL21 using DHF as substrate by spectrophotometric analysis
Plasmodium falciparum [14] = experiment: Antimalarial activity against Plasmodium falciparum V1/S harboring DHFR N51I/C59R/S108N/I164L mutant infected in human erythrocytes assessed as reduction in [3H]-hypoxanthine incorporation pretreated for 20 hrs followed by [3H]-hypoxanthine addition measured after 20 hrs by radioactivity method; format: functional, organism-based; settings: Erythrocyte
[15] = Inhibition of Plasmodium falciparum DHFR A16V/S108T mutant expressed in Escherichia coli BL21 using DHF as substrate by spectrophotometric analysis
[16] = test system: DHFR (human against Plasmodium falciparum DHFR double mutant); experiment: Selectivity index, ratio of Ki for human DHFR expressed in Escherichia coli BL21 to Ki for Plasmodium falciparum DHFR double mutant expressed in Escherichia coli BL21; format: toxicity; settings: read-out: Ratio Ki
Plasmodium falciparum [17] = experiment: Antimalarial activity against Plasmodium falciparum W2 harboring DHFR N51I/C59R/S108N mutant infected in human erythrocytes assessed as reduction in [3H]-hypoxanthine incorporation pretreated for 20 hrs followed by [3H]-hypoxanthine addition measured after 20 hrs by radioactivity method; format: functional, organism-based; settings: W2, Erythrocyte
[18] = Inhibition of Plasmodium falciparum DHFR N51I/C59R/S108N mutant expressed in Escherichia coli BL21 using DHF as substrate by spectrophotometric analysis

Row | SMILES | IC50 (Plasmodium falciparum [1]) | Ki [2] | selectivity ratio [3] | IC50 (Plasmodium falciparum [4]) | selectivity ratio [5] | IC50 (Plasmodium falciparum [6]) | selectivity ratio [7] | selectivity ratio [8] | Ki [9] | IC50 (Plasmodium falciparum [10]) | IC50 (Vero) | Ki [11] | selectivity ratio [12] | Ki [13] | IC50 (Plasmodium falciparum [14]) | Ki [15] | selectivity ratio [16] | IC50 (Plasmodium falciparum [17]) | Ki [18]
1 | CC1(C)N=C(N)N=C(N)N1OCCCOc1ccc(Cl)cc1 | 0.28 nM | 0.9 nM | 607 | 0.24 nM | 49 | 1.9 nM | 29 | 7 | 0.6 nM | 3.9 nM | 170 nM | 1 nM | 89 | 0.9 nM | 23 nM | 1.2 nM | 32 | 2.1 nM | 
2 | Cc1ccc(C)c(NCCCON2C(N)=NC(N)=NC2(C)C)c1 | 26 nM | 1.5 nM | > 1920 |  | 155 | 100 nM | 33 | > 143 | 0.8 nM | 310 nM | > 50000 nM | 3.8 nM | > 500 | 1.1 nM | 350 nM | 4.1 nM | 113 | 43 nM | 1.4 nM
3 | CC1(C)N=C(N)N=C(N)N1OCCCOc1ccc(F)cc1Cl | 0.034 nM | 0.9 nM | 629000 | 0.28 nM | 94 | 0.26 nM | 31 | 7130 | 0.4 nM | 3.1 nM | 21400 nM | 1.2 nM | 82300 | 0.9 nM | 3 nM | 1.8 nM | 42 | 0.24 nM | 
4 | CC1(C)N=C(N)N=C(N)N1OCCCc1ccccc1 | 9.2 nM | 2.8 nM | 772 |  | 36 | 22 nM | 8 | 79 | 1.1 nM | 250 nM | 7100 nM | 5 nM | 323 | 1.3 nM | 90 nM | 3.1 nM | 30 | 39 nM | 1.2 nM
5 | CC1(C)N=C(N)N=C(N)N1OCCSc1ccc(Cl)cc1 | 3.5 nM | 1.8 nM | 4000 |  | 84 | 37 nM | 8 | 26 | 0.3 nM | 32 nM | 14000 nM | 3 nM | 378 | 0.8 nM | 540 nM | 1.5 nM | 32 | 24 nM | 0.8 nM
6 | CCN(CC)CCCON1C(N)=NC(N)=NC1(C)C | 24 nM | 5.5 nM | > 2080 |  | 230 | 32 nM | 29 | > 63 | 1 nM | 140 nM | > 50000 nM | 7.9 nM | > 1560 | 1.7 nM | 800 nM | 9.7 nM | 135 | 70 nM | 2.1 nM
7 | CN(CCCON1C(N)=NC(N)=NC1(C)C)c1ccc(Cl)c(Cl)c1 | 0.52 nM | 2.3 nM | 64000 |  | 30 | 32 nM | 10 | 115 | 1.3 nM | 140 nM | 33300 nM | 3.9 nM | 1040 | 1 nM | 290 nM | 4 nM | 39 | 28 nM | 1.5 nM
